Test system: bacterial protein synthesis (S30 extract from quinolone-succeptable Streptococcus pneumoniae ATCC 46919)
Test: Cell-free translation assay, firefly luciferase reporter, S30 Streptococcus pneumoniae extract
Type: biochemical
Conditions: luciferase mRNA, read-out: IC50, concentration causing 50% inhibition of bacterial protein synthesis
Method: Bacterial protein synthesis inhibitory activity of representative compounds of this invention having formula (I) and the commercially-available antibacterials in TABLE 2 was determined by translation assays using the firefly luciferase reporter system described by Murray et al., (2001), “Staphylococcus aureus Cell Extract Transcription-Translation Assay: Firefly Luciferase Reporter System for Evaluating Protein Translation Inhibitors,” Antimicrob. Agents Chemother. 45(6): 1900-1904, but replacing the Staphylococcus aureus S30 extract described therein with S30 Streptococcus pneumoniae extract from quinolone-succeptable Streptococcus pneumoniae ATCC 46919, and replacing plasmid coding for the luciferase gene with mRNA (encoding produced by in vitro transcription from the plasmid pAS10rbs3) which encoded the luciferase gene with an upstream Streptococcus pneumoniae promoter and Shine-Dalgarno site.

Compound `CC(=O)NC[C@H]1CN(c2ccc(N3CCOCC3)c(F)c2)C(=O)O1` [Linezolid] has an IC50 of ~3000 nM.
